Laboratory results from patent US9963442B2, “Pyridones as herbicides” (E I DU PONT DE NEMOURS AND COMPANY, priority 2014, dated 2018).

Columns and labels:
Format in all cases: in vivo
[1] = system: barnyardgrass (Echinochloa crus-galli); experiment: Test A postemergence application; details: approx. 10 days
Method in brief: (§1)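 Postemergence: seedlings 2–10 cm, 1–2 leaf stage, sprayed; preemergence: directed soil spray after sowing. Surfactant-containing non-phytotoxic solvent vehicle. Visual rating vs. controls at ~10 d, 0 = no effect, 100 = complete control.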

kochia (Kochia scoparia) = experiment: Test A postemergence application; details: approx. 10 days
Method in brief: as §1

[2] = system: pigweed (Amaranthus retroflexus); experiment: Test A postemergence application; details: approx. 10 days
Method in brief: as §1

corn (Zea mays) [3] = experiment: Test A postemergence application; details: approx. 10 days
Method in brief: as §1

[4] = system: giant foxtail (Setaria faberii); experiment: Test A postemergence application; details: approx. 10 days
Method in brief: as §1

[5] = system: ragweed (common ragweed, Ambrosia elatior); experiment: Test A postemergence application; details: approx. 10 days
Method in brief: as §1

[6] = system: wheat (Triticum aestivum); experiment: Test A postemergence application; details: approx. 10 days
Method in brief: as §1

[7] = system: blackgrass (Alopecurus myosuroides); experiment: Test A postemergence application; details: approx. 10 days
Method in brief: as §1

[8] = system: Italian ryegrass (Lolium multiflorum); experiment: Test A postemergence application; details: approx. 10 days
Method in brief: as §1

[9] = system: galium (catchweed bedstraw, Galium aparine); experiment: Test A postemergence application; details: approx. 10 days
Method in brief: as §1

[10] = system: barnyardgrass (Echinochloa crus-galli); experiment: Test C postemergence; details: scale 0 to 100, 0 is no effect, 100 is complete control
Method in brief: (§2)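 Pre- and postemergence greenhouse applications of test chemicals in non-phytotoxic solvent with surfactant; preemergence on seeds in loam/sand, postemergence on plants 2–18 cm (1- to 4-leaf stage) in peat-based medium. Visual rating versus untreated controls after 13–15 days, scale 0 (no effect) to 100 (complete control).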

[11] = system: chickweed (common chickweed, Stellaria media); experiment: Test C postemergence; details: scale 0 to 100, 0 is no effect, 100 is complete control
Method in brief: as §2

[12] = system: pigweed (Amaranthus retroflexus); experiment: Test C postemergence; details: scale 0 to 100, 0 is no effect, 100 is complete control
Method in brief: as §2

corn (Zea mays) [13] = experiment: Test C postemergence; details: scale 0 to 100, 0 is no effect, 100 is complete control
Method in brief: as §2

[14] = system: blackgrass (Alopecurus myosuroides); experiment: Test C postemergence; details: scale 0 to 100, 0 is no effect, 100 is complete control
Method in brief: as §2

[15] = system: oilseed rape (Brassica napus); experiment: Test C postemergence; details: scale 0 to 100, 0 is no effect, 100 is complete control
Method in brief: as §2

[16] = system: yellow nutsedge (Cyperus esculentus); experiment: Test C postemergence; details: scale 0 to 100, 0 is no effect, 100 is complete control
Method in brief: as §2

[17] = system: morningglory (Ipomoea coccinea); experiment: Test C postemergence; details: scale 0 to 100, 0 is no effect, 100 is complete control
Method in brief: as §2

O=c1cccc(Oc2ncc(Cl)cn2)n1-c1ncc(Cl)cn1 [Compound 6]
65: Plant response rating, Morningglory ([17]; 62 g ai/ha)
85: Plant response rating, Pigweed ([12]; 125 g ai/ha)
80: Plant response rating (0 to 100 scale, 0 no effect, 100 complete control), Kochia (kochia (Kochia scoparia); 31 g ai/ha) | Plant response rating (0 to 100 scale, 0 no effect, 100 complete control), Pigweed ([2]; 31 g ai/ha) | Plant response rating, Morningglory ([17]; 125 g ai/ha)
75: Plant response rating, Pigweed ([12]; 62 g ai/ha) | Plant response rating, Morningglory ([17]; 31 g ai/ha)
5: Plant response rating, Barnyardgrass ([10]; 16 g ai/ha) | Plant response rating, Barnyardgrass ([10]; 31 g ai/ha) | Plant response rating, Barnyardgrass ([10]; 62 g ai/ha) | Plant response rating, Corn (corn (Zea mays) [13]; 16 g ai/ha) | Plant response rating, Blackgrass ([14]; 62 g ai/ha) | Plant response rating, Blackgrass ([14]; 125 g ai/ha) | Plant response rating, Oilseed Rape ([15]; 16 g ai/ha) | Plant response rating, Nutsedge, Yellow ([16]; 31 g ai/ha) | Plant response rating, Nutsedge, Yellow ([16]; 62 g ai/ha) | Plant response rating, Nutsedge, Yellow ([16]; 125 g ai/ha)
20: Plant response rating (0 to 100 scale, 0 no effect, 100 complete control), Corn (corn (Zea mays) [3]; 125 g ai/ha) | Plant response rating (0 to 100 scale, 0 no effect, 100 complete control), Ryegrass, Italian ([8]; 125 g ai/ha) | Plant response rating, Corn (corn (Zea mays) [13]; 125 g ai/ha) | Plant response rating, Oilseed Rape ([15]; 62 g ai/ha)
60: Plant response rating (0 to 100 scale, 0 no effect, 100 complete control), Foxtail, Giant ([4]; 125 g ai/ha) | Plant response rating (0 to 100 scale, 0 no effect, 100 complete control), Galium ([9]; 31 g ai/ha) | Plant response rating, Chickweed ([11]; 62 g ai/ha)
50: Plant response rating (0 to 100 scale, 0 no effect, 100 complete control), Ragweed ([5]; 125 g ai/ha) | Plant response rating (0 to 100 scale, 0 no effect, 100 complete control), Blackgrass ([7]; 125 g ai/ha) | Plant response rating, Chickweed ([11]; 16 g ai/ha) | Plant response rating, Morningglory ([17]; 16 g ai/ha)
70: Plant response rating, Pigweed ([12]; 16 g ai/ha) | Plant response rating, Pigweed ([12]; 31 g ai/ha)
0: Plant response rating (0 to 100 scale, 0 no effect, 100 complete control), Corn (corn (Zea mays) [3]; 31 g ai/ha) | Plant response rating (0 to 100 scale, 0 no effect, 100 complete control), Wheat ([6]; 31 g ai/ha) | Plant response rating (0 to 100 scale, 0 no effect, 100 complete control), Wheat ([6]; 125 g ai/ha) | Plant response rating (0 to 100 scale, 0 no effect, 100 complete control), Ryegrass, Italian ([8]; 31 g ai/ha) | Plant response rating, Blackgrass ([14]; 16 g ai/ha) | Plant response rating, Blackgrass ([14]; 31 g ai/ha) | Plant response rating, Nutsedge, Yellow ([16]; 16 g ai/ha)
10: Plant response rating (0 to 100 scale, 0 no effect, 100 complete control), Barnyardgrass ([1]; 31 g ai/ha) | Plant response rating (0 to 100 scale, 0 no effect, 100 complete control), Foxtail, Giant ([4]; 31 g ai/ha) | Plant response rating (0 to 100 scale, 0 no effect, 100 complete control), Blackgrass ([7]; 31 g ai/ha) | Plant response rating, Barnyardgrass ([10]; 125 g ai/ha) | Plant response rating, Corn (corn (Zea mays) [13]; 31 g ai/ha) | Plant response rating, Corn (corn (Zea mays) [13]; 62 g ai/ha) | Plant response rating, Oilseed Rape ([15]; 125 g ai/ha)
55: Plant response rating, Chickweed ([11]; 31 g ai/ha) | Plant response rating, Chickweed ([11]; 125 g ai/ha)
90: Plant response rating (0 to 100 scale, 0 no effect, 100 complete control), Kochia (kochia (Kochia scoparia); 125 g ai/ha) | Plant response rating (0 to 100 scale, 0 no effect, 100 complete control), Pigweed ([2]; 125 g ai/ha) | Plant response rating (0 to 100 scale, 0 no effect, 100 complete control), Galium ([9]; 125 g ai/ha)
15: Plant response rating, Oilseed Rape ([15]; 31 g ai/ha)
30: Plant response rating (0 to 100 scale, 0 no effect, 100 complete control), Barnyardgrass ([1]; 125 g ai/ha) | Plant response rating (0 to 100 scale, 0 no effect, 100 complete control), Ragweed ([5]; 31 g ai/ha)
